We go through 30 compounds from US7544694B2, “Substituted diaza-spiro-[5.5]-undecane derivatives and their use as neurokinin antagonists” (Janssen Pharmaceutica N.V., priority 2004, dated 2009).

Type in all cases: cell-based
Assay [1] concerns the target T1, NK3 (Homo sapiens, UniProt P29371).
T1 sequence (P29371 1-465): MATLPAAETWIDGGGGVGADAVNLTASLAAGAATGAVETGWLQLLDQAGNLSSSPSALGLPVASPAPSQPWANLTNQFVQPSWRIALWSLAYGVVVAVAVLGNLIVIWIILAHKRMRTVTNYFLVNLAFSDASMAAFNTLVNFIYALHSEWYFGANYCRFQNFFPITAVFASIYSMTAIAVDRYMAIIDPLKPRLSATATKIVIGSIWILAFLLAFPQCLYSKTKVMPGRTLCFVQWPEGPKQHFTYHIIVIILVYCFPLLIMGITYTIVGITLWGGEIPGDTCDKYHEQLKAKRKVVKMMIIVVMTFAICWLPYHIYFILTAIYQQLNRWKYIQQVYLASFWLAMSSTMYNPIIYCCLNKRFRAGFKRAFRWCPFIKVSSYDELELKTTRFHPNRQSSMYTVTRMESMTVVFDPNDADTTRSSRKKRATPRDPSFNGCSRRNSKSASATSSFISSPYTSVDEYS
As to the kind of experiment: Signal transduction (ST), intracellular Ca++ (FLIPR), NK3. As to conditions: antagonist, read-out: NK3 pIC50 (converted).

In assay [2] the target is T2, NK2 (Homo sapiens, UniProt P21452).
T2 sequence (P21452 1-398): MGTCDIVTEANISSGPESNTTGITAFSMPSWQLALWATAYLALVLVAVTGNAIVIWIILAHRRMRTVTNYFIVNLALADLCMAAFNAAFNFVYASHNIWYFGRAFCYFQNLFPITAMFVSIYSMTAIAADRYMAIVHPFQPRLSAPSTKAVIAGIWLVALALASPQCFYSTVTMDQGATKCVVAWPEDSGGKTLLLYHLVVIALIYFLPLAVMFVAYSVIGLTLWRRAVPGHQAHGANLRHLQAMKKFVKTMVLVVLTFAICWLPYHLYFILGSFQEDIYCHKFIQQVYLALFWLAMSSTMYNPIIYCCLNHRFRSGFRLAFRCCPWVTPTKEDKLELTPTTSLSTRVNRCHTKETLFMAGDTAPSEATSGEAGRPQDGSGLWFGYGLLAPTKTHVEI
As to the kind of experiment: Signal transduction (ST), intracellular Ca++ (FLIPR), NK2. As to conditions: antagonist, read-out: NK2 pIC50 (converted).

For assay [3], the target named is NK1 (Homo sapiens, UniProt P25103). As to the kind of experiment: Signal transduction (ST), intracellular Ca++ (FLIPR), functional NK1 antagonistic activity. As to conditions: antagonist, read-out: NK1 pIC50 (converted). In outline:
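Confluent cells were loaded with 2 μM Fluo3 for 1 h at 37° C, then washed into Krebs buffer pH 7.4 with 1.25 mM CaCl2 and 2.5 mM probenecid. Antagonists were preincubated 20 min at RT before agonist addition. Peak Ca++ transients were read by FLIPR, with EC50 or IC50 from sigmoidal non-linear regression.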

Sequence of NK1 (P25103 whole entry): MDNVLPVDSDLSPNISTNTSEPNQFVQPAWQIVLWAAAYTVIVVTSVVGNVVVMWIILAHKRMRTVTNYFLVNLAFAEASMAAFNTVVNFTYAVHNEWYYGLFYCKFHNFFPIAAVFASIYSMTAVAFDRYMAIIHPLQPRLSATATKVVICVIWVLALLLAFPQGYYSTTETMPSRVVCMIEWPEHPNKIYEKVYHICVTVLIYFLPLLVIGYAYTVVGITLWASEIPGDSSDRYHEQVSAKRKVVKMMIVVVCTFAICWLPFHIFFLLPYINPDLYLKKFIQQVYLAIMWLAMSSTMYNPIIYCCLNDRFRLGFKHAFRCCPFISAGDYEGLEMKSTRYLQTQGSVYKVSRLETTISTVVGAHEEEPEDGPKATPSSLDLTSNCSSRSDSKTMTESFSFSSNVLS

For the compound `O=C(c1cc(C(F)(F)F)cc(C(F)(F)F)c1)N1CC[C@H](N2CCC3(CC2)CCN(S(=O)(=O)C(F)(F)F)CC3)C[C@H]1Cc1ccccc1` [Compound 91], the IC50 is 4370 nM in assay [1], 1380 nM in assay [2] and 87.1 nM in assay [3].

`CC1(C)C(C(=O)N2CCC3(CC2)CCN([C@H]2CCN(C(=O)c4cc(C(F)(F)F)cc(C(F)(F)F)c4)[C@H](Cc4ccccc4)C2)CC3)C1(C)C` [Compound 16]: the IC50 in assay [1] was 8510 nM; in assay [2] it was more than 10000 nM; in assay [3], 191 nM.

As for `CC1CC1C(=O)N1CCC2(CC1)CCN([C@H]1CCN(C(=O)c3cc(C(F)(F)F)cc(C(F)(F)F)c3)[C@H](Cc3ccccc3)C1)CC2` (stereo partly drawn) [Compound 15], the IC50 is 7940 nM in assay [1], 3160 nM in assay [2] and 129 nM in assay [3].

For the compound `O=C(c1ccco1)N1CCCC2(CCN([C@H]3CCN(C(=O)c4cc(C(F)(F)F)cc(C(F)(F)F)c4)[C@H](Cc4ccccc4)C3)CC2)C1` [Compound 176], the IC50 in assay [1] was more than 10000 nM; in assay [2] it was approximately 6460 nM; in assay [3], 72.4 nM.

Turning to `C/C(=C\C(=O)N1CCC2(CC1)CCN([C@H]1CCN(C(=O)c3cc(C(F)(F)F)cc(C(F)(F)F)c3)[C@H](Cc3ccccc3)C1)CC2)C(F)(F)F` [Compound 86], the figures for the IC50 in assay [1], in assay [2] and in assay [3] were more than 10000 nM, more than 10000 nM and 129 nM, respectively.

For `O=C(C1CC1)N1CCC2(CC1)CCN(C(=O)[C@H]1CCN(C(=O)c3cc(C(F)(F)F)cc(C(F)(F)F)c3)[C@H](Cc3ccccc3)C1)CC2` [Compound 186], the results for the IC50 in assay [1], in assay [2] and in assay [3] were 5370 nM, 5010 nM and 17 nM, respectively.

With `O=C(c1cc(C(F)(F)F)cc(C(F)(F)F)c1)N1CC[C@H](N2CCC3(CC2)CCN(S(=O)(=O)Cc2ccccc2)CC3)C[C@H]1Cc1ccccc1` [Compound 126], the IC50 was 3980 nM in assay [1], 3390 nM in assay [2] and 33.1 nM in assay [3].

As to `CC1CCCCC1C(=O)N1CCC2(CC1)CCN([C@@H]1CCN(C(=O)c3cc(C(F)(F)F)cc(C(F)(F)F)c3)[C@H](Cc3ccccc3)C1)CC2` (stereo partly drawn) [Compound 39], the IC50 in assay [1] is 5370 nM; in assay [2], 4790 nM; in assay [3] it was 85.1 nM.

As to `COc1ccc(OC)c(S(=O)(=O)N2CCC3(CCN([C@H]4CCN(C(=O)c5cc(C(F)(F)F)cc(C(F)(F)F)c5)[C@H](Cc5ccccc5)C4)CC3)CC2)c1` [Compound 123], the IC50 in assay [1] is more than 10000 nM; in assay [2] it was approximately 4070 nM; in assay [3], 70.8 nM.

Take `O=C(c1cc(C(F)(F)F)cc(C(F)(F)F)c1)N1CC[C@H](N2CCC3(CC2)CCN(S(=O)(=O)c2cc(Cl)cc(Cl)c2)CC3)C[C@H]1Cc1ccccc1` [Compound 114]: the IC50 in assay [1] is more than 10000 nM; in assay [2], more than 10000 nM; in assay [3] it was 363 nM.

With `O=C(c1cc(C(F)(F)F)cc(C(F)(F)F)c1)N1CC[C@H](N2CCC3(CC2)CCN(S(=O)(=O)c2ccc(Cl)s2)CC3)C[C@H]1Cc1ccccc1` [Compound 94], the IC50 in assay [1] is 575 nM; in assay [2], more than 10000 nM; in assay [3], 132 nM.

In the case of `O=C(C1CC1)N1CCCC2(CCN([C@H]3CCN(C(=O)c4cc(C(F)(F)F)cc(C(F)(F)F)c4)[C@H](Cc4ccccc4)C3)CC2)C1` [Compound 172], the IC50 in assay [1] was 5750 nM; in assay [2] it was 6920 nM; in assay [3] it was 93.3 nM.

With `O=C(c1cc(C(F)(F)F)cc(C(F)(F)F)c1)N1CCC(N2CCC3(CC2)CCN(S(=O)(=O)c2cccs2)CC3)CC1Cc1ccccc1` (stereo not drawn) [Compound 92], the IC50 was 339 nM in assay [1], 1320 nM in assay [2] and 17 nM in assay [3].

Regarding `O=C(c1ccsc1)N1CCC2(CC1)CCN([C@H]1CCN(C(=O)c3cc(C(F)(F)F)cc(C(F)(F)F)c3)[C@H](Cc3ccc(Cl)c(Cl)c3)C1)CC2` [Compound 133], the IC50 in assay [1] was 4900 nM; in assay [2], 3720 nM; in assay [3] it was 53.7 nM.

As for `O=C(c1cc(C(F)(F)F)cc(C(F)(F)F)c1)N1CC[C@H](N2CCC3(CC2)CCN(S(=O)(=O)c2ccccc2)CC3)C[C@H]1Cc1ccccc1` [Compound 102], the values for the IC50 in assay [1], in assay [2] and in assay [3] were 708 nM, more than 10000 nM and 61.7 nM, respectively.

On to `O=C(c1ccccn1)N1CCC2(CC1)CCN([C@H]1CCN(C(=O)c3cc(C(F)(F)F)cc(C(F)(F)F)c3)[C@H](Cc3ccccc3)C1)CC2` [Compound 49], for which the IC50 in assay [1] was more than 10000 nM; in assay [2] it was 3980 nM; in assay [3], 107 nM.

Turning to `O=C(c1ccc(=O)oc1)N1CCC2(CC1)CCN([C@H]1CCN(C(=O)c3cc(C(F)(F)F)cc(C(F)(F)F)c3)[C@H](Cc3ccccc3)C1)CC2` [Compound 46], the IC50 in assay [1] was more than 10000 nM; in assay [2], 6310 nM; in assay [3] it was 105 nM.

In the case of `O=C(C1CC1)N1CCC2(CC1)CCN([C@H]1CCN(C(=O)c3cc(C(F)(F)F)cc(C(F)(F)F)c3)[C@H](Cc3ccc(F)c(F)c3)C1)CC2` [Compound 136], the IC50 in assay [1] is 692 nM; in assay [2] it was 2000 nM; in assay [3] it was 17 nM.

Take `O=C1CCC(C(=O)N2CCC3(CC2)CCN(C2CCN(C(=O)c4cc(C(F)(F)F)cc(C(F)(F)F)c4)C(Cc4ccccc4)C2)CC3)N1` (stereo not drawn) [Compound 4]: the IC50 in assay [1] was 1290 nM; in assay [2], 1550 nM; in assay [3], 38.9 nM.

For the compound `Cc1noc(C)c1CN1CCC2(CCN([C@H]3CCN(C(=O)c4cc(C(F)(F)F)cc(C(F)(F)F)c4)[C@H](Cc4ccccc4)C3)CC2)CC1=O` [Compound 200], the IC50 is 6920 nM in assay [1], 1450 nM in assay [2] and 23.4 nM in assay [3].

As to `Cc1ccccc1S(=O)(=O)N1CCC2(CCN([C@H]3CCN(C(=O)c4cc(C(F)(F)F)cc(C(F)(F)F)c4)[C@H](Cc4ccccc4)C3)CC2)CC1` [Compound 103], the IC50 is 1510 nM in assay [1], 2510 nM in assay [2] and 50.1 nM in assay [3].

Take `O=C(C1CCOC1)N1CCC2(CC1)CCN(C(=O)[C@H]1CCN(C(=O)c3cc(C(F)(F)F)cc(C(F)(F)F)c3)[C@H](Cc3ccccc3)C1)CC2` (stereo partly drawn) [Compound 187]: the IC50 in assay [1] is more than 10000 nM; in assay [2], 7080 nM; in assay [3], 20 nM.

As for `Cc1nnsc1C(=O)N1CCC2(CC1)CCN(C(=O)[C@H]1CCN(C(=O)c3cc(C(F)(F)F)cc(C(F)(F)F)c3)[C@H](Cc3ccccc3)C1)CC2` [Compound 190], the IC50 is 3550 nM in assay [1], 1620 nM in assay [2] and 6.17 nM in assay [3].

As for `CC12CCC(C(=O)N3CCC4(CC3)CCN([C@H]3CCN(C(=O)c5cc(C(F)(F)F)cc(C(F)(F)F)c5)[C@H](Cc5ccccc5)C3)CC4)(OC1=O)C2(C)C` (stereo partly drawn) [Compound 61], the IC50 was more than 10000 nM in assay [1], more than 10000 nM in assay [2] and 263 nM in assay [3].

In the case of `O=C(c1cc(C(F)(F)F)cc(C(F)(F)F)c1)N1CC[C@H](N2CCC3(CC2)CCN(S(=O)(=O)c2ccc(Cl)cc2Cl)CC3)C[C@H]1Cc1ccccc1` [Compound 112], the IC50 was more than 10000 nM in assay [1], more than 10000 nM in assay [2] and 550 nM in assay [3].

Regarding `N#Cc1ccc(C(=O)N2CCC3(CC2)CCN([C@H]2CCN(C(=O)c4cc(C(F)(F)F)cc(C(F)(F)F)c4)[C@H](Cc4ccccc4)C2)CC3)cc1` [Compound 43], the IC50 was more than 10000 nM in assay [1], 3630 nM in assay [2] and 105 nM in assay [3].

As to `O=C(c1ccoc1)N1CCC2(CC1)CCN([C@H]1CCN(C(=O)c3cc(C(F)(F)F)cc(C(F)(F)F)c3)[C@H](Cc3ccccc3)C1)CC2` [Compound 24], the results for the IC50 in assay [1], in assay [2] and in assay [3] were 1320 nM, more than 10000 nM and 112 nM, respectively.

For `O=C(C1CC1)N1CCC2(CCN(C[C@H]3CCN(C(=O)c4cc(C(F)(F)F)cc(C(F)(F)F)c4)[C@H](Cc4ccccc4)C3)CC2)CC1` [Compound 179], the IC50 in assay [1] is more than 10000 nM; in assay [2], more than 10000 nM; in assay [3], 58.9 nM.

As for `Cc1cccc(S(=O)(=O)N2CCC3(CCN([C@H]4CCN(C(=O)c5cc(C(F)(F)F)cc(C(F)(F)F)c5)[C@H](Cc5ccccc5)C4)CC3)CC2)c1` [Compound 104], the IC50 in assay [1] was 1950 nM; in assay [2] it was approximately 4570 nM; in assay [3], 64.6 nM.

As to `CC(=O)Nc1ccc(S(=O)(=O)N2CCC3(CCN([C@H]4CCN(C(=O)c5cc(C(F)(F)F)cc(C(F)(F)F)c5)[C@H](Cc5ccccc5)C4)CC3)CC2)cc1` [Compound 124], the IC50 in assay [1] was 1780 nM; in assay [2], approximately 2570 nM; in assay [3], 23.4 nM.
